Source: patent US12240854B2, “TRAF 6 inhibitors” (Helmholtz Zentrum München - Deutsches Forschungszentrum für …, priority 2018, dated 2025)
Entries after “also recorded” stand apart in the source; their conditions may differ.

Columns and labels:
[1] = system: IL-2 and TNFα secretion of Jurkat T-cells; assay: ELISA cytokine secretion, Jurkat T-cells; format: cell-based, human
Procedure: (§1) For measurement of cytokine secretion, 2×10^5 Jurkat T-cells or primary CD4^+ T-cells or human PBMCs per sample were seeded, treated with compound for 6 hours and stimulated as indicated. 20 hours after stimulation, supernatants were harvested and analyzed with the IL-2, IL-1β and TNFα Ready-Set-Go! ELISA (2nd Generation) kits provided by Affymatrix eBioscience.

[2] = system: TCR target genes IL-2 and TNFα in Jurkat T-cells; assay: mRNA expression (qRT-PCR) in Jurkat T-cells; format: cell-based, human; conditions: PMA/Ionomycin
Procedure: For MEF cells, 1.2×10^5 cells per sample were seeded, treated with compound for 6 hours and stimulated with either IL-1β or TNFα for 60 minutes. Jurkat T-cells and primary mouse CD4^+ T-cells were seeded at 2×10^5 cells per sample, also treated with compound for 6 hours and stimulated with PMA/lonomycin for 3 hours. RNA was isolated according to the manufacturer's protocol of the Qiagen RNeasy Kit (MEF cells) or the STRATEC INVITRAP® SPIN UNIVERSAL RNA MINI KIT (Jurkat T-cells). The isolation of mRNA from […] white adipose tissue from DIO mice was performed using TRIzol® Reagent according to manufacturer's instruction. To clear the isolated RNA from genomic DNA, samples (up to 5 μg RNA) were treated with RQ1 RNase-Free DNaseI (Promega) as described in the technical manual. For the reverse transcription of RNA into cDNA, the DNaseI digested RNA samples were processed using the SuperScript III First Strand cDNA Synthesis System (Invitrogen/ThermoFisher Scientific) following the manufacturer's protocol. […] For quantification of cDNA in the samples, the LightCylcer480 (Roche) and the KAPA SYBR FAST qPCR Kit were used. For relative quantification, the ΔΔCp method first described by Pfaffl (Pfaffl, M. W., A new mathematical model for relative quantification in real-time RT-PCR. Nucleic Acids Res, 2001. 29(9): p. e45) was applied.

hERG = target: T1, hERG (Homo sapiens, UniProt Q12809); assay: ADME: hERG predictor assay; format: in vitro ADME
T1 construct: Bienta Enamine Biology Services
Procedure: All ADME (plasma stability, plasma protein binding, microsomal stability, Log D, Caco-2 assay, CYP450 inhibition and hERG predictor assay) as well as pharmacokinetic studies (Tmax, Cmax, AUC0-240min, Mean Residence Time, Elimination half life, Elimination rate constant, Volume of Distribution and Clearance) of C25-140 (compound 3) were conducted by Bienta Enamine Biology Services of Bienta/Enamine Ltd.

[3] = system: NF-κB activation in Jurkat T-cells; assay: EMSA for NF-κB activation in Jurkat T-cells; format: cell-based, human; conditions: PMA/Ionomycin
Procedure: For compound treatment, MEF cells were seeded in 6 well plates at 1.2×10^5 cells/well the day before treatment. Jurkat T-cells were seeded directly before treatment at 2×10^5 cells/sample. Six hours after compound or DMSO treatment cells were stimulated as indicated. Thereby, MEF cells were left untreated or stimulated with recombinant mouse IL-1β (1 ng/mL) or TNFα (10 ng/mL) for 20 minutes. Jurkat T-cells were stimulated with Phorbol-12-myristat-13-acetet (PMA) (400 ng/mL) and lonomycin (600 ng/mL) for 30 minutes. Eventually, cells were lysed in high-salt lysis buffer (20 mM HEPES pH 7.9; 350 mM NaCl; 1 mM MgCl2; 0.5 mM EDTA; 0.1 mM EGTA; 20% Glycerol; 1% NP-40; 10 mM NaF; 8 mM β-Glycerophosphate; 1 mM DTT; 300 μM Sodium-vanadate; complete protease inhibitor) and analyzed in EMSA assays using H2K (NF-κB) or Oct-1 (loading control) probes.

[4] = system: primary human peripheral blood mononuclear cells (PBMCs); assay: Human PBMC cytokine secretion (ELISA); format: cell-based
Procedure: as §1
For isolation of peripheral blood mononuclear cells (PBMCs) from 50 mL human blood of three different donors, blood was mixed with 800 units of Heparin (Sigma-Aldrich) and centrifuged at 300×g for 10 minutes without brake. After removal of the plasma fraction, buffy coat was diluted in 2 volumes PBS and added on top of 15 ml Lymphoprep (STEMCELL technologies). After centrifugation at 160×g for 20 minutes at room temperature without brake, platelets were removed and the cell suspension was centrifuged again at 350×g for 20 minutes without brake. Mononuclear cells from the intermediate layer were transferred to a new falcon and washed 3 times in PBS supplemented with 0.1% BSA and 2 mM EDTA. In the end, cells were resuspended in RPMI medium containing 10% FCS, 1% Penicillin/Streptomycin and 50 μM β-mercaptoethanol. Per sample, 2×10^5 cells were seeded and treated with compound for 6 hours. The cells were stimulated with either 1 μg/ml Lipopolysaccharide (LPS) or CD3/CD28 (1 μg hCD3 (IgG2A), 4 μg hCD28 (IgG1), […] and […]) or 20 ng/IL-1β. Supernatants for analysis of cytokine secretion were harvested 20 hours after stimulation.

Jurkat T-cells = assay: Cell cycle assessment (propidium iodide), Jurkat T-cells; format: cell-based, human; conditions: 24 hours and 72 hours
Procedure: For cell cycle staining, cells were seeded at 2×10^5 cells per sample and treated with compound or DMSO. After the indicated incubation time (24 or 72 hours), cells were fixed in 100% Ethanol and subsequently stained with the Propidium Iodide staining solution (0.1% Triton X-100; 20 μg/ml Propidium Iodide; 200 μg/ml RNAse A in PBS) for 40 min in the dark. The Propidium Iodide fluorescence was collected using the Attune Flow Cytometer (Thermo Fisher Scientific). Analysis was performed using the Single Cell analysis software FlowJo.

T1 sequence (Q12809 whole entry): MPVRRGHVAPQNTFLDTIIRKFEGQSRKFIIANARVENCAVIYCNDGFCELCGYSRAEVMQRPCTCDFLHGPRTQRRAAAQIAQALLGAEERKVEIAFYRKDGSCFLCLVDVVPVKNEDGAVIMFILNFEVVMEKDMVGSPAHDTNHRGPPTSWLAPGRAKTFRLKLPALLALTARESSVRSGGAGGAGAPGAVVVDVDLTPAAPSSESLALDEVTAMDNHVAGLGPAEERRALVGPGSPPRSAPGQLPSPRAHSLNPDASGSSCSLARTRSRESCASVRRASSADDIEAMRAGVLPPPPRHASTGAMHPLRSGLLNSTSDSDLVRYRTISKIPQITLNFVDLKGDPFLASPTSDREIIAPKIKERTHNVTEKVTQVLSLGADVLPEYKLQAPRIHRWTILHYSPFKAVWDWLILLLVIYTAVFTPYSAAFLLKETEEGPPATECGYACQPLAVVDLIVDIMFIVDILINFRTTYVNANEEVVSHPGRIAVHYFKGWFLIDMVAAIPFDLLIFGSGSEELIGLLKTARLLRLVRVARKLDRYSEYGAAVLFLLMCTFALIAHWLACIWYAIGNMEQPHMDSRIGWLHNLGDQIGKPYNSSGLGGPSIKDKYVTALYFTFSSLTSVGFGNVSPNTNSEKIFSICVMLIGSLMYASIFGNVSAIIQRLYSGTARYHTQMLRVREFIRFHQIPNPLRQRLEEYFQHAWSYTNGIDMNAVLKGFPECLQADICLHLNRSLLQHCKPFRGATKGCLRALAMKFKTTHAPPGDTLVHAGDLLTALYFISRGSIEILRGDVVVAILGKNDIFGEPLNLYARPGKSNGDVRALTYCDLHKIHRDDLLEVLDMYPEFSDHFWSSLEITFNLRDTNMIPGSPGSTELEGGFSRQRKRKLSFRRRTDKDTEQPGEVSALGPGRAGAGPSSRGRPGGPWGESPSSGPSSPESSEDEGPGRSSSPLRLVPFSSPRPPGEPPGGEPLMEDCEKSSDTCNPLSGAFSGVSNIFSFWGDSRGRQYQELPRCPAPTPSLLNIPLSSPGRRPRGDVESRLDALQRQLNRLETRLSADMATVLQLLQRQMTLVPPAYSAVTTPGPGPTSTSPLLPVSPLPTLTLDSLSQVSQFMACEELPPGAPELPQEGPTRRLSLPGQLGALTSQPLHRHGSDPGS

Compound: Cc1nn(-c2ccc3nnc(C)n3n2)c(C)c1CCC(=O)N1CCC(Cc2ccccc2)CC1 [Example C25-140, 1-(4-Benzylpiperidin-1-yl)-3-(3,5-dimethyl-1-(3-methyl-[1,2,4]-triazolo-[4,3-b]-pyridazin-6-yl)-1H-pyrazol-4-yl)-propan-1-one]
- cytokine secretion of IL-2 and TNFα [1]: reduced; also recorded: dose-dependently decreased
- mRNA levels of TCR target genes IL-2 and TNFα [2]: reduced; also recorded: dose-dependently decreased
- hERG inhibition (hERG): does not very much inhibit hERG
- NF-κB activation [3]: reduced; also recorded: attenuated NF-κB activation
- secretion of IL-2 and TNFα ([4]; CD3/CD28 stimulation): decreased levels of IL-2 and TNFα secretion
- secretion of IL-6 and TNFα ([4]; IL-1β stimulation): reduced secretion; also recorded: attenuated
- secretion of IL-1β and TNFα ([4]; LPS stimulation): reduced secretion; also recorded: reduced levels of IL-1β and TNFα cytokines
- cell cycle progression (Jurkat T-cells): no effects on cell cycle phases; also recorded: not impaired
